Experimental data as given in patent US7521536B2, “Glutamate transporter associated protein” (The Johns Hopkins University School of Medicine, priority 1999, dated 2009).

How the values were obtained:
GTRAP3-18 = test: retinoic acid regulation of GTRAP3-18 and EAAC1-mediated glutamate transport in HEK293 cells; assay type: cell-based
Description: Human GTRAP3-18 (JWA protein) was originally identified as a retinoic acid responsive gene. […] The loss of transport activity is not due to changes in EAAC1 protein level (FIG. 9A) or the cellular membrane localization of EAAC1 protein by retinoic acid as examined by fluorescent microscopy. To confirm that loss of transport activity was specifically due to GTRAP3-18 and not by other factors induced by retinoic acid or direct effects on EAAC1, a truncated EAAC1 cDNA, lacking the last 93 amino acids, was constructed. The truncation corresponded to the region used as bait in yeast two-hybrid screening, and was not able to interact with GTRAP3-18. Nevertheless, after transient expression in HEK293 cells, the truncated EAAC1 transported glutamate. […] Thus, the loss of transport activity by retinoic acid was the result of GTRAP3-18 induction. […] This could reflect lack of natural inhibition of the truncated protein EAAC1 by endogenous GTRAP3-18—results similar to the effects of GTRAP3-18 antisense treatment (FIG. 9E).

Rho = target: T1, Rho (Homo sapiens, UniProt P61586); test: guanine nucleotide exchange assay (GTPγS binding to small G proteins); assay type: biochemical; conditions: GST-RhoA, GST-Cdc42 and GST-Rac, 10 min at 30° C.
T1 construct: made in house; host or cells: bacterial cells
T1 sequence (P61586 whole entry): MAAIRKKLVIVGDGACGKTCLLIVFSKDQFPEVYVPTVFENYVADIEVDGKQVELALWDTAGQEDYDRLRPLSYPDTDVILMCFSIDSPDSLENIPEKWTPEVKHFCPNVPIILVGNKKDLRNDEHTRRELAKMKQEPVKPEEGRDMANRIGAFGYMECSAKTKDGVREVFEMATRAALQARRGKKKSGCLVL
Protocol: Guanine nucleotide exchange assay. Small G proteins GST-RhoA, GST-CDC42 and GST-Rac were expressed in bacterial cells and affinity purified to ˜80% purity using a glutathione column. Twenty pmoles of each protein were incubated with 100 pmoles GTPγS for 10 min at 30° C. with varying concentrations of full-length GTRAP4-48 or p115. The binding reactions were filtered through BA-85 nitrocellulose and the amount of GTPγS bound to small G protein was quantitated by scintillation counting of the dried filters. The amount of GTPγS that bound to GST-RhoA, GST-Cdc42 and GST-Rac in the presence of full-length GTRAP4-48 or p115 was measured.

## CC1=C(/C=C/C(C)=C/C=C/C(C)=C/C(=O)O)C(C)(C)CCC1 [Retinoic acid, retinoic acid]
GTRAP3-18
  non-toxic dose range: 1 to 10 µM

B1: p115: RhoGEF that selectively activates Rho (protein)
chain: MEDFARGAASPGPSRPGLVPVSIIGAEDEDFENELETNSEEQNSQFQSLEQVKRRPAHLMALLQHVALQFEPGPLLCCLHADMLGSLGPKEAKKAFLDFYHSFLEKTAVLRVPVPPNVAFELDRTRADLISEDVQRRFVQEVVQSQQVAVGRQLEDFRSKRLMGMTPWEQELAQLEAWVGRDRASYEARERHVAERLLMHLEEMQHTISTDEEKSAAVVNAIGLYMRHLGVRTKSGDKKSGRNFFRKKVMGNRRSDEPAKTKKGLSSILDAARWNRGEPQVPDFRHLKAEVDAEKPGATDRKGGVGMPSRDRNIGAPGQDTPGVSLHPLSLDSPDREPGADAPLELGDSSPQGPMSLESLAPPESTDEGAETESPEPGDEGEPGRSGLELEPEEPPGWRELVPPDTLHSLPKSQVKRQEVISELLVTEAAHVRMLRVLHDLFFQPMAECLFFPLEELQNIFPSLDELIEVHSLFLDRLMKRRQESGYLIEEIGDVLLARFDGAEGSWFQKISSRFCSRQSFALEQLKAKQRKDPRFCAFVQEAESRPRCRRLQLKDMIPTEMQRLTKYPLLLQSIGQNTEEPTEREKVELAAECCREILHHVNQAVRDMEDLLRLKDYQRRLDLSHLRQSSDPMLSEFKNLDITKKKLVHEGPLTWRVTKDKAVEVHVLLLDDLLLLLQRQDERLLLKSHSRTLTPTPDGKTMLRPVLRLTSAMTREVATDHKAFYVLFTWDQEAQIYELVAQTVSERKNWCALITETAGSLKVPAPASRPKPRPSPSSTREPLLSSSENGNGGRETSPADARTERILSDLLPFCRPGPEGQLAATALRKVLSLKQLLFPAEEDNGAGPPRDGDGVPGGGPLSPARTQEIQENLLSLEETMKQLEELEEEFCRLRPLLSQLGGNSVPQPGCT
Rho
  guanine nucleotide exchange activity: specific guanine nucleotide exchange activity for Rho
